Like-named read-outs stand apart in the source and are kept apart here.

The conditions of data set [1]: cited from earlier work.
Data set [2] relates to Staphylococcus epidermidis biofilm. Kind of data set: Removal of biofilm from titanium disks, safranin staining. Type of data set: cell-based. The following applies: two minutes exposure. An excerpt:
Chemically pure (cp) titanium disks with a diameter of 6.2 mm and a height of 2 mm were used. […] After production, the disks were washed with NaOH at 40% v/v and HNO3 at 50% v/vin an ultrasonic bath to remove contaminants, then were washed with deionised water to reach a neutral pH and stored at room temperature in 70% v/v ethanol. Thereafter, the coins were placed in Eppendorf tube and steam autoclaved for sterilization.
Four chemical decontamination agents were selected for the in vitro testing: sterile saline H2O (VWR, Oslo, Norway), Chlorhexidine, 3% v/v H2O2(VWR, Oslo, Norway), a mixture of 3% v/v H2O2 and 2 g/L TiO2 (2 g nano-particles: P25 Aeroxide, Degussa Evonik, Evonik Industries AG, Essen, Germany).
15 sterile titanium disks per groups were inoculated. […] The amount of biofilm present on the surface of the titanium samples was assessed by using the safranin staining method: 10 min exposure to a 0.1% solution of safranin, then rinsed with distilled water, air dried, and exposed to a solution of 30% acetic acid to release the colored biomass from the titanium surfaces. The intensity of the staining was analyzed using a Synergy HT Multi-Detection Microplate Reader (Biotek, VT, USA) with a wavelength of 530 nm.

On data set [3], the source says:
Methylene blue (MB) is a heterocyclic aromatic chemical compound with molecular formula: C16H18N3SCl (SigmaAldrich, Oslo, Norway). It has many uses in a range of different fields, such as biology and chemistry. […] A degradation of MB therefore can be used as a model for the in vivo degradation of organic material, such as bacteria, or dead, damaged, and/or infected tissue. At room temperature, it appears as a solid, odourless, dark green powder, that yields a blue solution when dissolved in water. When degraded in solution, methylene blue becomes colourless.
When methylene blue is analysed by UV-vis spectrophotometry (Lambda 25, Perkin Elmer, USA), it absorbs light at […]. This machine was used to quantify the degradation of MB.
The aim was to measure if methylene blue could be degraded by H2O2(PERDROGEN® 30% H2O2 (v/v), Sigma Aldrich AS, Oslo, Norway) at 5% only, without ACP in a composite hydrogel formulation comprising poloxamers (Sigma Aldrich AS, Oslo, Norway) at a concentration of 5% w/v. Then, an increasing concentration of amorphous calcium phosphates ACP (by mixing two precursor components. Component A contained MB in a mixture of mono- and dibasic ammonium phosphate at pH 5.5.) was added to the solution until a maximum concentration of 8 g/L.
The measurements were taken every 3 minutes for one hour. The pH of the suspension containing MB was also registered. […]

Data set [4] is described as follows: pH of the suspension containing MB. Format: physicochemical.

For the molecule `OO` [H2O2, Hydrogen peroxide], the “effect on wound healing” value in data set [1] (0.03% v/v solution, only if not applied repeatedly) was “may induce healing”; in data set [1] (0.5% v/v solution), “impede healing”. Moreover, the “biofilm removal with higher concentration” value in data set [2] is listed as “increased the biofilm removal”. Further, the figures for the MB degradation entry in data set [3] (adding 5% v/v H2O2 to the ACP suspension) and in data set [3] (increasing concentration of H2O2 in the ACP suspension) were “increased the MB degradation” and “increased the MB degradation in a linear way”, respectively. Further, the “pH of the suspension” value stood at 3.3 in data set [4] (ACP suspension with MB, with H2O2 at 15% v/v) and 3.7 in data set [4] (H2O2 suspension with MB, without ACP).

(Values after patent US12685749B2, “Multi-functional cleaning and/or debridement composition” (CORTICALIS AS, priority 2021, dated 2026).)
